Test results taken from patent publication US20140248361A1, “HERBAL EXTRACT COMPOSITION AND A PROCESS THEREOF” (PRASAN SOLUTIONS (INDIA) PVT LTD, priority 2012, published 2014).

Legend:
[1] = Estimation of shelf life of palm oil (Rancimat temperature extrapolation); conditions: 200 ppm
Description: (§2) This is an aid for estimating the shelf life of oils and fats. The extrapolation makes use of the relationship between the measured induction time and the temperature given by van't Hoff's law. Several measurements are made at different temperatures and then extrapolated to the storage temperature. The values so obtained allow estimation of the storage stability of the oil or fat containing PRESOL.
(§3) The shelf life is calculated using Rancimat shelf life calculator.

[2] = Estimation of shelf life of sunflower oil (Rancimat temperature extrapolation); conditions: 200 ppm
Description: as §2, §3

[3] = Peroxide value of palm oil on storage
Description: (§4) The shelf life of oil is studied by carrying out chemical analysis, which include studying peroxide value (represents extent of primary oxidation), Para-anisidine value (represents extent of secondary oxidation) and totox value (reflects total oxidation of oil). These parameters are determined for 1 kg of untreated oil and treated oil at every 15 days interval for samples stored at ambient temperature and at every 7 days interval for samples stored at 50° C. The treated oil being, the oil upon addition of 200 ppm of TBHQ (sample-A), 200 ppm of BHA (sample-B), 200 ppm and 500 ppm of pulverized green tea extract with 90% polyphenol (sample-C), 200 ppm and 500 ppm of rosemary extract (sample-D), 200 ppm and 500 ppm of green tea extract after cryogenic grinding (sample-E), 200 ppm and 500 ppm of crude green tea extract (sample-F) and PRESOL at 200 ppm and 500 ppm. The untreated oil is the control sample without any antioxidant.
(§5) The threshold limit for per oxide value under which oil can be used for safe consumption is 10 meq of O2/Kg oil. Similarly, the threshold limit of para-anisidine value and Totox value is 10 and 30, respectively.

[4] = Para-anisidine value of palm oil on storage
Description: as §4, §5

[5] = Totox value of palm oil on storage; conditions: ambient temperature
Description: as §4, §5

Shelf life of canola oil = conditions: 200 ppm
Description: D. Determination of Shelf Life of Canola Oil in the Presence of PRESOL • Shelf life of canola oil is analyzed upon adding 200 ppm of TBHQ (sample-A), BHA (sample-B), green tea extract with 90% polyphenol (sample-C), rosemary extract (sample-D), green tea extract after cryogenic grinding (sample-E), and PRESOL, respectively to canola oil.

[6] = Frying cycle analysis of palm oil (total polar compounds)
Description: (§1) Palm oil and sunflower oil with antioxidants added to it are obtained from a local refinery. Frying studies are carried out with control oil and by adding TBHQ (Sample A), BHA (Sample B), GT Pulverized (Sample C), ROS (Sample D), GT Cryo grinded (Sample E), GT Crude Extract (Sample F) and PRESOL, respectively to the oils. Experiments are carried out a concentration of 200 ppm and 500 ppm. Fresh potatoes of less reduced sugar content variety are used throughout the experiment which is purchased form a local supermarket. Oil samples are withdrawn from the fryer at the end of every day and stored at −4° C. until it is tested for quality parameters viz, total polar compounds. Polar compounds present in oil and fats are measured by column chromatography using standard method, ES ISO 8420:2012.

[7] = Frying cycle analysis of sunflower oil (total polar compounds)
Description: as §1

[8] = Effect of particle size on antioxidant activity (Rancimat induction time) in palm oil; conditions: 200 ppm in palm oil; Rancimat 120° C.
Description: (§6) Effect of particle size analysis on antioxidant activity is analysed with the help of Rancimat (Metrohm 743) which gives oxidative stability index based on the induction time (h). Rancimat analysis is carried out at two different temperature in order to set relationship between induction time and temperature of the studies.
(§7) In this, we have analyzed the particle size of samples with the help of Particle Size Analyzer (Microtrac, S3500) and its antioxidant activity with the help of Rancimat (Metrohm 743).

[9] = Synergism of TBHQ and PRESOL combination (Rancimat) in palm oil
Description: Synergism of TBHQ and PRESOL is analyzed in palm oil. If the frying industry is considered, synthetic antioxidant TBHQ is being added to the oils. […] In order to overcome this limitation, TBHQ is fortified with PRESOL and added to vegetable oils in order to increase the frying cycles which ultimately increases the shelf life of end products. […] The below table 25 illustrates all the combination of fortification of TBHQ and PRESOL used in palm oil to illustrate maximum activity of fortified combination. Synergism is calculated based on the below equation: [formula]

[10] = Effect of particle size on antioxidant activity (Rancimat induction time) in sunflower oil; conditions: 200 ppm in sunflower oil; Rancimat 100° C.
Description: as §6, §7

[11] = Oil stability index (Rancimat) of palm oil; conditions: 200 ppm
Description: (§8) As used herein, ‘Oil Stability Index (OSI)’ is an American Oil Chemists Society (AOCS) approved method that determines the relative resistance of fat and oil samples to oxidation, which is defined by the following equation—
(§9) The oil stability index is determined using the Metrohm's Rancimat (Metrohm 743 Rancimat).
4.0 g of palm oil is weighed into the reaction vessel. The reaction vessel filled with oil is placed in a heating block. The temperature of the block is maintained at 100° C., 120° C. and 140° C., respectively. The oil is heated at the said temperatures, followed by passing air at a flow rate of 20 L/h. Flowing of air through the oil produces peroxides during primary oxidation and organic acids having low molecular weight, aldehydes and ketones with typical rancid odor during the secondary oxidation phase. These compounds are conveyed by the air flow into measurement vessel containing distilled water where conductivity is being checked continuously by sensor.

[12] = Oil stability index (Rancimat) of sunflower oil; conditions: 200 ppm
Description: as §8, §9
4.0 g of sunflower oil is weighed into the reaction vessel. The reaction vessel filled with oil is placed in a heating block. The temperature of the block is maintained at 80° C., 100° C. and 120° C., respectively. The oil is heated at the said temperatures, followed by passing air at a flow rate of 20 L/h. Flowing of air through the oil produces peroxides during primary oxidation and organic acids having low molecular weight, aldehydes and ketones with typical rancid odor during the secondary oxidation phase. These compounds are conveyed by the air flow into measurement vessel containing distilled water where conductivity is being checked continuously by sensor.

[13] = ambient temperature, day 0, 200 ppm
[14] = ambient temperature, day 15, 200 ppm
[15] = ambient temperature, day 30, 200 ppm
[16] = ambient temperature, day 45, 200 ppm
[17] = ambient temperature, day 60, 200 ppm
[18] = ambient temperature, day 75, 200 ppm
[19] = ambient temperature, day 90, 200 ppm
[20] = ambient temperature, day 105, 200 ppm
[21] = ambient temperature, day 120, 200 ppm
[22] = ambient temperature, day 135, 200 ppm
[23] = ambient temperature, day 150, 200 ppm
[24] = ambient temperature, day 165, 200 ppm
[25] = ambient temperature, day 180, 200 ppm

With `CC(C)(C)c1cc(O)ccc1O` [Sample A, tertiary butyl hydroquinone] the “Shelf Life (days) at 30° C.” value [1] was 617.0 days, the “Shelf Life (days) at 30° C.” value [2] was 171.0 days and the Peroxide value ([3]; 50° C., day 0, 200 ppm) was 0.482. It also gave a Peroxide value ([3]; 50° C., day 7, 200 ppm) of 1.309, a Peroxide value ([3]; 50° C., day 15, 200 ppm) of 1.836 and a Peroxide value ([3]; 50° C., day 22, 200 ppm) of 1.887. For the same compound, the Peroxide value ([3]; 50° C., day 30, 200 ppm) was 2.005, the Peroxide value ([3]; 50° C., day 37, 200 ppm) was 3.074 and the Peroxide value ([3]; 50° C., day 45, 200 ppm) was 3.686. For the same compound, the Peroxide value ([3]; 50° C., day 52, 200 ppm) was 4.102, the Peroxide value ([3]; 50° C., day 60, 200 ppm) was 4.491 and the Peroxide value ([3]; 50° C., day 67, 200 ppm) was 4.75. For the same compound, the Peroxide value ([3]; 50° C., day 75, 200 ppm) was 4.893, the Peroxide value ([3]; 50° C., day 82, 200 ppm) was 5.209 and the Peroxide value ([3]; 50° C., day 90, 200 ppm) was 5.395. For the same compound, the Peroxide value [3, 13] was 0.465, the Peroxide value [3, 14] was 0.762 and the Peroxide value [3, 15] was 1.417. It also gave a Peroxide value [3, 16] of 1.558, a Peroxide value [3, 17] of 1.771 and a Peroxide value [3, 18] of 1.855. It also gave a Peroxide value [3, 19] of 1.814, a Peroxide value [3, 20] of 1.88 and a Peroxide value [3, 21] of 1.91. For the same compound, the Peroxide value [3, 22] was 1.951, the Peroxide value [3, 23] was 2.222 and the Peroxide value [3, 24] was 2.31. For the same compound, the Peroxide value [3, 25] was 2.403, the Para-anisidine value ([4]; 50° C., day 0, 200 ppm) was 2.69 and the Para-anisidine value ([4]; 50° C., day 7, 200 ppm) was 3.062. It also gave a Para-anisidine value ([4]; 50° C., day 15, 200 ppm) of 3.296, a Para-anisidine value ([4]; 50° C., day 22, 200 ppm) of 3.395 and a Para-anisidine value ([4]; 50° C., day 30, 200 ppm) of 3.74. It also gave a Para-anisidine value ([4]; 50° C., day 37, 200 ppm) of 4.052, a Para-anisidine value ([4]; 50° C., day 45, 200 ppm) of 4.209 and a Para-anisidine value ([4]; 50° C., day 52, 200 ppm) of 4.685. For the same compound, the Para-anisidine value ([4]; 50° C., day 60, 200 ppm) was 5.091, the Para-anisidine value ([4]; 50° C., day 67, 200 ppm) was 5.208 and the Para-anisidine value ([4]; 50° C., day 75, 200 ppm) was 5.514. The Para-anisidine value ([4]; 50° C., day 82, 200 ppm) was 5.601, the Para-anisidine value ([4]; 50° C., day 90, 200 ppm) was 5.827 and the Para-anisidine value [4, 13] was 2.566. The Para-anisidine value [4, 14] was 3.062, the Para-anisidine value [4, 15] was 3.045 and the Para-anisidine value [4, 16] was 3.113. For the same compound, the Para-anisidine value [4, 17] was 2.615, the Para-anisidine value [4, 18] was 2.731 and the Para-anisidine value [4, 19] was 2.772. For the same compound, the Para-anisidine value [4, 20] was 3.217, the Para-anisidine value [4, 21] was 3.303 and the Para-anisidine value [4, 22] was 3.438. It also gave a Para-anisidine value [4, 23] of 3.473, a Para-anisidine value [4, 24] of 3.639 and a Para-anisidine value [4, 25] of 3.808. It also gave a Totox value ([5]; day 0, 200 ppm) of 3.497, a Totox value ([5]; day 15, 200 ppm) of 4.585 and a Totox value ([5]; day 30, 200 ppm) of 5.879. For the same compound, the Totox value ([5]; day 45, 200 ppm) was 6.228, the Totox value ([5]; day 60, 200 ppm) was 6.157 and the Totox value ([5]; day 75, 200 ppm) was 6.441. It also gave a Totox value ([5]; day 90, 200 ppm) of 6.400, a Totox value ([5]; day 105, 200 ppm) of 6.976 and a Totox value ([5]; day 120, 200 ppm) of 7.122. It also gave a Totox value ([5]; day 135, 200 ppm) of 7.339, a Totox value ([5]; day 150, 200 ppm) of 7.916 and a Totox value ([5]; day 165, 200 ppm) of 8.258. The Totox value ([5]; day 180, 200 ppm) was 8.614, the “Shelf Life (No. Of Days)” value (Shelf life of canola oil) was 181 days and the “frying cycle after which threshold limit for total polar compounds is crossed” value ([6]; palm oil) was 40 cycle. The “Number of batches fried” value ([6]; palm oil (PO), potato chips, 200 ppm) was 40 batches, the “Total Polar compounds of sunflower oil” value ([7]; 200 ppm, frying cycle 0) was 3.746 and the “Total Polar compounds of sunflower oil” value ([7]; 200 ppm, frying cycle 8) was 6.375. For the same compound, the “Total Polar compounds of sunflower oil” value ([7]; 200 ppm, frying cycle 16) was 13.632, the “Total Polar compounds of sunflower oil” value ([7]; 200 ppm, frying cycle 24) was 18.505 and the “Total Polar compounds of sunflower oil” value ([7]; 200 ppm, frying cycle 32) was 23.123. For the same compound, the “Total Polar compounds of sunflower oil” value ([7]; 200 ppm, frying cycle 40) was 28.648, the “frying cycle after which threshold limit for total polar compounds is crossed” value ([7]; sunflower oil) was 40 cycle and the “Number of batches fried” value ([7]; sunflower oil (SFO), potato chips, 200 ppm) was 40 batches. The “Induction Period (h) of PO at 120° C.” value [8] was 20.93 h, the “Increase in OSI (%)” value ([9]; 50 ppm alone) was 5.12% and the “Induction Time (H) at 120 C.” value ([9]; 50 ppm alone) was 9.57 H. For the same compound, the OSI ([9]; 50 ppm alone) was 1.054, the “increase in induction time as compared to control (X-C)” value (shortened to “increase in induction time”) ([9]; 50 ppm alone) was 0.49 and the “Increase in OSI (%)” value ([9]; 100 ppm alone) was 17.53%. The “Induction Time (H) at 120 C.” value ([9]; 100 ppm alone) was 11.01 H, the OSI ([9]; 100 ppm alone) was 1.21 and the “increase in induction time” value ([9]; 100 ppm alone) was 1.93. For the same compound, the “Increase in OSI (%)” value ([9]; 200 ppm alone) was 36.24%, the “Induction Time (H) at 120 C.” value ([9]; 200 ppm alone) was 14.24 H and the OSI ([9]; 200 ppm alone) was 1.57. For the same compound, the “increase in induction time” value ([9]; 200 ppm alone) was 5.16, the “Induction Period (h) of SFO 100° C.” value [10] was 26.82 h and the “Induction Time” value ([11]; 100° C.) was 95.76 h. The “Oxidative Stability Index (OSI)” value ([11]; 100° C.) was 2.30, the “Induction Time” value ([11]; 120° C.) was 20.93 h and the “Oxidative Stability Index (OSI)” value ([11]; 120° C.) was 2.17. For the same compound, the “Induction Time” value ([11]; 140° C.) was 5.26 h, the “Oxidative Stability Index (OSI)” value ([11]; 140° C.) was 2.15 and the “Induction Time” value ([12]; 80° C.) was 109.76 h. For the same compound, the “Oxidative Stability Index (OSI)” value ([12]; 80° C.) was 3.01, the “Induction Time” value ([12]; 100° C.) was 26.82 h and the “Oxidative Stability Index (OSI)” value ([12]; 100° C.) was 2.88. For the same compound, the “Induction Time” value ([12]; 120° C.) was 6.13 h and the “Oxidative Stability Index (OSI)” value ([12]; 120° C.) was 2.61.
